This is an account of results in patent publication US8399475B2, “Crystalline and amorphous forms of naltrexone hydrochloride” (Mallinckrodt LLC, priority 2007, dated 2013).

The data set is described as follows: Solid-state stability / form conversion under wet or high humidity conditions.

In the case of `Cl.O=C1CC[C@@]2(O)[C@H]3Cc4ccc(O)c5c4[C@@]2(CCN3CC2CC2)[C@H]1O5` [Form I, naltrexone hydrochloride], the “humidity at which the form converts to Form II” value (exposure of solid to humidity) was “above 70% RH”.
Take `Cl.O=C1CC[C@@]2(O)[C@H]3Cc4ccc(O)c5c4[C@@]2(CCN3CC2CC2)[C@H]1O5` [Form II, naltrexone hydrochloride]: where the note is “compared with non-hydrated forms”, the “stability under wet and/or high humidity environments” value was “more stable”.
